{"source": "patent US20120123760A1", "about": "“METHOD FOR DESIGNING AN APTAMER” (Technology Innovations, LLC, priority 2010, published 2012)", "key": {"[1]": {"test": "Fluorescence assay of 6FAM-labelled aptamer bound to DPPC+DPPS liposomes", "type": "binding", "excerpt": "(§1) Two of the top-ranked 6-mer DNA designed aptamers targeting PS were chosen for experimental investigations. Both sequences containing fluorescence tags (6FAM is on the 3′ end of the DNA sequence) were obtained from Integrated DNA Technologies, Commercial Park, Coralville Iowa, USA. 96 well assay plates for fluorescence assays using FLUOstar OPTIMA (BMG Labtech GmbH, Offenburg, Germany) were from Corning Inc., New York, USA. Two lipids, 1,2-dipalmitoyl-sn-glycero-3-phosphatidylcholine (DPPC) and 1,2-dipalmitoyl-sn-glycero-3-phospho-L-serine (sodium salt) (DPPS) in chloroform stock and cholesterol (powder) were obtained from Avanti Polar Lipids (Alabaster, Ala., USA). They were used without further purification.\n(§2) Two liposomes were prepared for studying binding affinity and specificity. One uses DPPC and DPPS at a 10:1 DPPC/DPPS molar ratio and the second one uses DPPC alone. […] 100 μL from this final solution was loaded into each of the 96 wells on the fluorescence plate to measure fluorescence of the samples. […]\n(§3) Both sequences containing fluorescence tags (6FAM is on the 3′ end of the DNA sequence) were obtained from Integrated DNA Technologies, Commercial Park, Coralville Iowa, USA. 96 well assay plates for fluorescence assays using FLUOstar OPTIMA (BMG Labtech GmbH, Offenburg, Germany) were from Corning Inc., New York, USA. […]"}, "[2]": {"test": "Fluorescence assay of 6FAM-labelled aptamer bound to DPPC alone liposomes (control without PS)", "type": "binding", "conditions": "FIG. 8 right panel", "excerpt": "as §1, §2, §3"}}}
{"sequence": "AAAGAC [PS-aptamer II]", "values": [{"measurement": "binding affinity (inferred from fluorescence)", "setting": "[1]", "result": "relatively better or stronger binding affinity than PS-aptamer I"}, {"measurement": "fluorescence level from bound DNA aptamer", "setting": "[1]; FIG. 8 left panel, aptamer beyond 0.165 nmol", "result": "higher fluorescence level than PS-aptamer I"}, {"measurement": "fluorescence level from bound DNA aptamer", "setting": "[2]", "result": "binds either poorly or not at all"}]}
